US20250145640A1, “2,2-DIFLUORO-5H-[1,3]DIOXOLO[4,5-F]ISOINDOL-7-ONE DERIVATIVES AS PESTICIDES” (SYNGENTA CROP PROTECTION AG, priority 2021, published 2025)

What was measured:
Format in all cases: in vivo
[1] = test system: Chilo suppressalis (Striped Rice Stemborer); assay: Example B1: Activity against Chilo suppressalis, artificial diet in 24-well microtiter plates; conditions: 144 h, application rate 200 ppm, L2 larvae, assessed 6 days after infestation, read-out: control (at least one of mortality, anti-feedant effect, growth inhibition)
Protocol: Example B1: Activity Against Chilo suppressalis (Striped Rice Stemborer)
24-well microtiter plates with artificial diet were treated with aqueous test solutions prepared from 10′000 ppm DMSO stock solutions by pipetting. After drying, the plates were infested with L2 larvae (6-8 per well). The samples were assessed for mortality, anti-feeding effect, and growth inhibition in comparison to untreated samples 6 days after infestation. Control of Chilo suppressalis by a test sample is given when at least one of the categories mortality, anti-feedant effect, and growth inhibition is higher than the untreated sample.

[2] = test system: Diabrotica Balteata (Corn Root Worm); assay: Example B2: Activity against Diabrotica balteata, sprayed maize sprouts on agar; conditions: 96 h, application rate 200 ppm, L2 larvae, assessed 4 days after infestation, read-out: effect in at least one of the two categories (mortality or growth inhibition)
Protocol: Example B2: Activity Against Diabrotica Balteata (Corn Root Worm)
Maize sprouts placed onto an agar layer in 24-well microtiter plates were treated with aqueous test solutions prepared from 10′000 ppm DMSO stock solutions by spraying. After drying, the plates were infested with L2 larvae (6 to 10 per well). The samples were assessed for mortality and growth inhibition in comparison to untreated samples 4 days after infestation.

[3] = test system: Euschistus heros (Neotropical Brown Stink Bug); assay: Example B3: Activity against Euschistus heros, sprayed soybean leaves on agar; conditions: 120 h, application rate 200 ppm, N2 nymphs, assessed 5 days after infestation, read-out: effect in at least one of the two categories (mortality or growth inhibition)
Protocol: Example B3: Activity Against Euschistus heros (Neotropical Brown Stink Bug)
Soybean leaves on agar in 24-well microtiter plates were sprayed with aqueous test solutions prepared from 10′000 ppm DMSO stock solutions. After drying the leaves were infested with N2 nymphs. The samples were assessed for mortality and growth inhibition in comparison to untreated samples 5 days after infestation.

[4] = test system: Myzus persicae (Green peach aphid); assay: Example B4: Activity against Myzus persicae, feeding/contact activity on sunflower leaf discs; conditions: foliar, 144 h, application rate 200 ppm, aphid population of mixed ages, assessed 6 days after infestation
Protocol: Example B4: Activity against Myzus persicae (Green peach aphid) Feeding/Contact activity Sunflower leaf discs were placed onto agar in a 24-well microtiter plate and sprayed with aqueous test solutions prepared from 10′000 ppm DMSO stock solutions. After drying, the leaf discs were infested with an aphid population of mixed ages. The samples were assessed for mortality 6 days after infestation.

[5] = test system: Plutella xylostella (Diamond Back Moth); assay: Example B5: Activity against Plutella xylostella, artificial diet in 24-well microtiter plates; conditions: 192 h, application rate 200 ppm, eggs, assessed 8 days after infestation, read-out: effect in at least one of the two categories (mortality or growth inhibition)
Protocol: Example B5: Activity Against Plutella xylostella (Diamond Back Moth)
24-well microtiter plates with artificial diet were treated with aqueous test solutions prepared from 10′000 ppm DMSO stock solutions by pipetting. After drying, Plutella eggs were pipetted through a plastic stencil onto a gel blotting paper and the plate was closed with it. The samples were assessed for mortality and growth inhibition in comparison to untreated samples 8 days after infestation.

[6] = test system: Spodoptera littoralis (Egyptian Cotton Leaf Worm); assay: Example B6: Activity against Spodoptera littoralis, sprayed cotton leaf discs on agar; conditions: foliar, 72 h, application rate 200 ppm, L1 larvae, assessed 3 days after infestation, read-out: control (at least one of mortality, anti-feedant effect, growth inhibition)
Protocol: Example B6: Activity Against Spodoptera littoralis (Egyptian Cotton Leaf Worm)
Cotton leaf discs were placed onto agar in 24-well microtiter plates and sprayed with aqueous test solutions prepared from 10′000 ppm DMSO stock solutions. After drying the leaf discs were infested with five L1 larvae. The samples were assessed for mortality, anti-feeding effect, and growth inhibition in comparison to untreated samples 3 days after infestation. Control of Spodoptera littoralis by a test sample is given when at least one of the categories mortality, anti-feedant effect, and growth inhibition is higher than the untreated sample.

CCS(=O)(=O)c1c(N2Cc3cc4c(cc3C2=O)OC(F)(F)O4)nn2cc(C3CC3)ccc12 [P4, 6-(6-cyclopropyl-3-ethylsulfonyl-pyrazolo[1,5-a]pyridin-2-yl)-2,2-difluoro-5H-[1,3]dioxolo[4,5-f]isoindol-7-one]
≥ 80%: control (mortality, anti-feedant effect or growth inhibition) at 200 ppm [1] | percent effect (mortality or growth inhibition) at 200 ppm [2] | percent effect (mortality or growth inhibition) at 200 ppm [3] | mortality at 200 ppm [4] | percent effect (mortality or growth inhibition) at 200 ppm [5] | percent control (mortality, anti-feedant effect or growth inhibition) at 200 ppm [6]
